Test results published in patent US20240016784A1, “Y BOX BINDING PROTEIN 1 INHIBITORS” (Oregon Health & Science University, priority 2020, published 2024).

How the values were obtained:
YB-1 = YB-1 expression in six ovarian cancer cell lines; format: cell-based; details: 2.5 μM for 12 h; six different OC cell lines
Method: Out of six targets identified, we selected proteins whose thermal shift is above 5° in the presence of SU056 for further study of protein expression after treatment. […] To study the in vivo effects of SU056 treatment, we analyzed ID8 tumor xenograft samples via immunohistochemistry (IHC). […] To identify the broader effects of SU056 on YB-1 and its downstream protein/activity in different ovarian cancer cell lines, we selected six different cell lines and treated them with SU056 (2.5 μM) for 12 h. Cells were analyzed for YB-1 and CD44 expression and Multidrug resistance 1 (MDR1, ABC pump mediated efflux). […] Finally, we tested the time kinetics and dose-dependent effects of SU056 on YB-1 expression. OVCAR4, OVCAR8, and SKOV3 cells were treated with SU056 (1, 2.5, and 5 μM) for 3, 6, 12, and 24 h and YB-1 expression was measured using YB-1 ELISA. […]
Total YB-1 sandwich ELISA: Total YB-1 protein level was analyzed using PathScan® Total YB1 Sandwich ELISA Kit (Cell Signaling, #12543) by following the manufacturer's protocol.
FIGS. 4A-4E: SU056 inhibits YB-1. […] FIG. 4C) Respective OC cells were treated with 2.5 μM SU056 for 12 h and YB-1 & CD44 expression and multidrug resistance activity was measured as described in the ‘method’ section. The % inhibition was calculated and compared to the control for the respective cell line. […]

SUMO2 = target: T1, SUMO2 (Homo sapiens, UniProt P61956); assay: Cellular Thermal Shift Assay (CETSA) in OVCAR8 cells; format: binding; details: SU056 2.5 μM, 1.5 h, read-out: increase in thermal stability (Tm shift) of SUMO2
T1 construct: endogenous in cells; host or cells: OVCAR8
T1 sequence (P61956 1-93 limits assumed): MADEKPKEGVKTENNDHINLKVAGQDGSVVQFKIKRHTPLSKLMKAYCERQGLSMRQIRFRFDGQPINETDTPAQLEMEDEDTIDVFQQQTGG
Method: (§1) The cellular thermal shift assay (CETSA) is based on the principle of protein-ligand interactions causing a shift in protein thermal stability (Savitski et al., 2014). When a protein interacts with ligand, its thermal stability increases, and this principle allows identification of which protein targets that are engaged by small molecules or drug candidates. We used this assay to identify protein targets of SU056. OVCAR8 cells were treated with SU056 (2.5 μM) for 1.5 h, and protein lysates were analyzed for a thermal shift. The heat maps represent the thermal stability of 804 soluble proteins in the presence and absence of SU056 compare with 37° C. (FIG. 3A).
(§2) Cellular Thermal Shift Assay (CETSA): The assay was performed as previously described (Savitski et al., 2014). Briefly, OVCAR8 cells were treated with vehicle (DMSO) or SU056 (2.5 μM) at 70-80% confluency for 1.5 h. Cells were harvested and washed with 1×PBS twice. Cells were pelleted and resuspended in PBS. 10 different PCR tubes with 1×10^6 cells/tube (in 100 μL PBS) were prepared for both the groups. Tubes were exposed to respective temperatures (37, 41, 44, 47, 50, 53, 56, 59, 63, 67° C.) for 3 min using a thermal cycler (Bio-Rad, CA, USA) followed by 2 min incubation at room temperature.

PSMB2 = target: T2, PSMB2 (Homo sapiens, UniProt P49721); assay: as above; format: binding; details: SU056 2.5 μM, 1.5 h, read-out: increase in thermal stability (Tm shift) of PSMB2
T2 construct: endogenous in cells; host or cells: OVCAR8
Method: as §1, §2

TMSB10 = target: T3, TMSB10 (Homo sapiens, UniProt P63313); assay: as above; format: binding; details: SU056 2.5 μM, 1.5 h, read-out: increase in thermal stability (Tm shift) of TMSB10
T3 construct: endogenous in cells; host or cells: OVCAR8
T3 sequence (P63313 whole entry): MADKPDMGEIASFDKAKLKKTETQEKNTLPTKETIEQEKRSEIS
Method: as §1, §2

TMSB4X = target: T4, TMSB4X (Homo sapiens, UniProt P62328); assay: as above; format: binding; details: SU056 2.5 μM, 1.5 h, read-out: increase in thermal stability (Tm shift) of TMSB4X
T4 construct: endogenous in cells; host or cells: OVCAR8
T4 sequence (P62328 whole entry): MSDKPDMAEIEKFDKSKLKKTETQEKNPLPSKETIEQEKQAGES
Method: as §1, §2

OVCAR8 OC tumors = assay: OVCAR8 xenograft combination study; format: in vivo, NOD-SCID mice; details: SU056 10 mg/kg daily, paclitaxel 5 mg/kg weekly, intraperitoneal, 28 days
Method: In a pharmacokinetics study in vivo, injection of 20 mg/kg SU056 led to a maximum serum concentration of 28.19 μg/mL with a T1/2 of ˜45 min. We then tested the synergism of paclitaxel and SU056 co-treatment in vivo in NOD-SCID mice implanted with OVCAR8 OC tumors as described above. Mice were given daily treatment of SU056 (10 mg/kg) and weekly treatment of paclitaxel (5 mg/kg) were administered intraperitoneally. […] This likely resulted from decreased paclitaxel efflux from OVCAR8 cells in the presence of SU056.
In vivo xenograft model and drug efficacy study: All animal experiments were reviewed and approved by the Animal Care and Use Committee of Stanford University, CA, USA. Luciferase tagged ID8 (2×10^6) or OVCAR8 (5×10^6) cells were implanted into the right flank of 6-7-week-old female C57BL/6 mice and NOD/SCID mice, respectively. Respective treatment began after tumors grew to 100-200 mm^3 diameters. The ID8 syngeneic mice model was treated with a vehicle (30% PEG-300 in saline), 20 mg/kg SU093, and 20 mg/kg SU056 intraperitoneally (IP) daily for 42 days. At the end of treatment, blood was collected from each mouse and analyzed for liver toxicity parameters, including Alanine Aminotransferase (ALT), Aspartate Aminotransferase (AST), and Alkaline Phosphatase (ALKP). […]

## O=C1OCC2=C1C(c1cccc(F)c1)c1cc3c(cc1N2CCO)OCO3 (stereo not drawn) [SU056, 9-(3-fluorophenyl)-5-(2-hydroxyethyl)-6,9-dihydro-[1,3]dioxolo[4,5-g]furo[3,4-b]quinolin-8(5H)-one]
YB-1
  inhibition of YB-1 expression: 28-56%
SUMO2
  ΔTm at 2.5 µM: 5.4 ± 1.08 °C
PSMB2
  ΔTm at 2.5 µM: 5.36 ± 0.76 °C
TMSB10
  ΔTm at 2.5 µM: 5.89 ± 1.18 °C
TMSB4X
  ΔTm at 2.5 µM: 4.43 ± 1.31 °C
OVCAR8 OC tumors
  OC tumor growth: significant reduction in OC tumor growth
